In this data set the test system is CCRIS mutagenicity, Ames/micronucleus/aberration tests. Briefly: CCRIS mutagenicity studies.
Setting [1] is: Test System: AMES SALMONELLA TYPHIMURIUM, Strain/Indicator: TA98, Metabolic Activation: NONE, Method: PREINCUBATION
[2] abbreviates: Test System: AMES SALMONELLA TYPHIMURIUM, Strain/Indicator: TA100, Metabolic Activation: NONE, Method: PREINCUBATION
Where [3] appears, read: Test System: AMES SALMONELLA TYPHIMURIUM, Strain/Indicator: TA98, Metabolic Activation: NONE, Method: STANDARD PLATE.
Setting [4] is: Test System: AMES SALMONELLA TYPHIMURIUM, Strain/Indicator: TA100, Metabolic Activation: NONE, Method: STANDARD PLATE.
The mark [5] stands for this setting: Test System: AMES SALMONELLA TYPHIMURIUM, Strain/Indicator: TA1535, Metabolic Activation: NONE, Method: STANDARD PLATE.
[6] abbreviates: Test System: AMES SALMONELLA TYPHIMURIUM, Strain/Indicator: TA1537, Metabolic Activation: NONE, Method: STANDARD PLATE.
[7] abbreviates: Test System: AMES SALMONELLA TYPHIMURIUM, Strain/Indicator: TA1538, Metabolic Activation: NONE, Method: STANDARD PLATE.

SMILES strings stand for the structures. Activity calls are given as the source filed them. The rule behind the calls is not given here.

Regarding `Cc1[nH]ccc2c1[nH]c1cc(=O)ccc12`, the mutagenic call is, setting by setting: (Test System: AMES SALMONELLA TYPHIMURIUM, Strain/Indicator: TA97, Metabolic Activation: NONE, Method: PREINCUBATION) “active; positive”; (Test System: AMES SALMONELLA TYPHIMURIUM, Strain/Indicator: TA97, Metabolic Activation: RAT, LIVER, S-9, AROCLOR 1254, Method: PREINCUBATION) “inactive; negative”; under setting [1], “inactive; negative”; (Test System: AMES SALMONELLA TYPHIMURIUM, Strain/Indicator: TA98, Metabolic Activation: RAT, LIVER, S-9, AROCLOR 1254, Method: PREINCUBATION) “inactive; negative”; under setting [2], “inactive; negative”; (Test System: AMES SALMONELLA TYPHIMURIUM, Strain/Indicator: TA100, Metabolic Activation: RAT, LIVER, S-9, AROCLOR 1254, Method: PREINCUBATION) “inactive; negative”. Besides, the mutagenic call (Test System: AMES SALMONELLA TYPHIMURIUM, Strain/Indicator: TA102, Metabolic Activation: NONE, Method: PREINCUBATION) was “inactive; negative” and the mutagenic call (Test System: AMES SALMONELLA TYPHIMURIUM, Strain/Indicator: TA102, Metabolic Activation: RAT, LIVER, S-9, AROCLOR 1254, Method: PREINCUBATION) is “inactive; negative”.

Consider `CCCCC(=O)N=c1sn(C(=O)CCCC)c2ccc([N+](=O)[O-])cc12`, for which the mutagenic call (Test System: AMES SALMONELLA TYPHIMURIUM, Strain/Indicator: TA100, Metabolic Activation: S-9, Method: STANDARD PLATE) was “active; positive”.

With `Cc1ncc2c(n1)CCC2`, the mutagenic call under setting [3] is “inactive; negative”; the mutagenic call (Test System: AMES SALMONELLA TYPHIMURIUM, Strain/Indicator: TA98, Metabolic Activation: RAT, LIVER, S-9, Method: STANDARD PLATE) is “inactive; negative”; the mutagenic call under setting [4] was “inactive; negative”; the mutagenic call (Test System: AMES SALMONELLA TYPHIMURIUM, Strain/Indicator: TA100, Metabolic Activation: RAT, LIVER, S-9, Method: STANDARD PLATE) was “inactive; negative”; the mutagenic call under setting [5] was “inactive; negative”; the mutagenic call (Test System: AMES SALMONELLA TYPHIMURIUM, Strain/Indicator: TA1535, Metabolic Activation: RAT, LIVER, S-9, Method: STANDARD PLATE) was “inactive; negative”. In addition, the mutagenic call by setting is: under setting [6], “inactive; negative”; (Test System: AMES SALMONELLA TYPHIMURIUM, Strain/Indicator: TA1537, Metabolic Activation: RAT, LIVER, S-9, Method: STANDARD PLATE) “inactive; negative”; under setting [7], “inactive; negative”; (Test System: AMES SALMONELLA TYPHIMURIUM, Strain/Indicator: TA1538, Metabolic Activation: RAT, LIVER, S-9, Method: STANDARD PLATE) “inactive; negative”.

As to `Oc1c(Br)cc(Br)cc1Br`, the mutagenic call was “inactive; negative” (Test System: AMES SALMONELLA TYPHIMURIUM, Strain/Indicator: TA98, Metabolic Activation: HAMSTER, LIVER, S-9, AROCLOR 1254 (10%), Method: PREINCUBATION); “inactive; negative” (Test System: AMES SALMONELLA TYPHIMURIUM, Strain/Indicator: TA98, Metabolic Activation: HAMSTER, LIVER, S-9, AROCLOR 1254, Method: STANDARD PLATE); “inactive; negative” under setting [1]; “inactive; negative” under setting [3]; “inactive; negative” (Test System: AMES SALMONELLA TYPHIMURIUM, Strain/Indicator: TA98, Metabolic Activation: RAT, LIVER, S-9, AROCLOR 1254 (10%), Method: PREINCUBATION); “inactive; negative” (Test System: AMES SALMONELLA TYPHIMURIUM, Strain/Indicator: TA98, Metabolic Activation: RAT, LIVER, S-9, AROCLOR 1254, Method: STANDARD PLATE). Further, the mutagenic call is, setting by setting: (Test System: AMES SALMONELLA TYPHIMURIUM, Strain/Indicator: TA100, Metabolic Activation: HAMSTER, LIVER, S-9, AROCLOR 1254 (10%), Method: PREINCUBATION) “inactive; negative”; (Test System: AMES SALMONELLA TYPHIMURIUM, Strain/Indicator: TA100, Metabolic Activation: HAMSTER, LIVER, S-9, AROCLOR 1254, Method: STANDARD PLATE) “inactive; negative”; under setting [2], “inactive; negative”; under setting [4], “inactive; negative”; (Test System: AMES SALMONELLA TYPHIMURIUM, Strain/Indicator: TA100, Metabolic Activation: RAT, LIVER, S-9, AROCLOR 1254 (10%), Method: PREINCUBATION) “inactive; negative”; (Test System: AMES SALMONELLA TYPHIMURIUM, Strain/Indicator: TA100, Metabolic Activation: RAT, LIVER, S-9, AROCLOR 1254, Method: STANDARD PLATE) “inactive; negative”. The mutagenic call is, setting by setting: (Test System: AMES SALMONELLA TYPHIMURIUM, Strain/Indicator: TA1535, Metabolic Activation: HAMSTER, LIVER, S-9, AROCLOR 1254 (10%), Method: PREINCUBATION) “inactive; negative”; (Test System: AMES SALMONELLA TYPHIMURIUM, Strain/Indicator: TA1535, Metabolic Activation: HAMSTER, LIVER, S-9, AROCLOR 1254, Method: STANDARD PLATE) “inactive; negative”; (Test System: AMES SALMONELLA TYPHIMURIUM, Strain/Indicator: TA1535, Metabolic Activation: NONE, Method: PREINCUBATION) “inactive; negative”; under setting [5], “inactive; negative”; (Test System: AMES SALMONELLA TYPHIMURIUM, Strain/Indicator: TA1535, Metabolic Activation: RAT, LIVER, S-9, AROCLOR 1254 (10%), Method: PREINCUBATION) “inactive; negative”; (Test System: AMES SALMONELLA TYPHIMURIUM, Strain/Indicator: TA1535, Metabolic Activation: RAT, LIVER, S-9, AROCLOR 1254, Method: STANDARD PLATE) “inactive; negative”. For the same compound, the mutagenic call is, setting by setting: (Test System: AMES SALMONELLA TYPHIMURIUM, Strain/Indicator: TA1537, Metabolic Activation: HAMSTER, LIVER, S-9, AROCLOR 1254 (10%), Method: PREINCUBATION) “inactive; negative”; (Test System: AMES SALMONELLA TYPHIMURIUM, Strain/Indicator: TA1537, Metabolic Activation: HAMSTER, LIVER, S-9, AROCLOR 1254, Method: STANDARD PLATE) “inactive; negative”; (Test System: AMES SALMONELLA TYPHIMURIUM, Strain/Indicator: TA1537, Metabolic Activation: NONE, Method: PREINCUBATION) “inactive; negative”; under setting [6], “inactive; negative”; (Test System: AMES SALMONELLA TYPHIMURIUM, Strain/Indicator: TA1537, Metabolic Activation: RAT, LIVER, S-9, AROCLOR 1254 (10%), Method: PREINCUBATION) “inactive; negative”; (Test System: AMES SALMONELLA TYPHIMURIUM, Strain/Indicator: TA1537, Metabolic Activation: RAT, LIVER, S-9, AROCLOR 1254, Method: STANDARD PLATE) “inactive; negative”. The mutagenic call is “inactive; negative” (Test System: AMES SALMONELLA TYPHIMURIUM, Strain/Indicator: TA1538, Metabolic Activation: HAMSTER, LIVER, S-9, AROCLOR 1254, Method: STANDARD PLATE); “inactive; negative” under setting [7]; “inactive; negative” (Test System: AMES SALMONELLA TYPHIMURIUM, Strain/Indicator: TA1538, Metabolic Activation: RAT, LIVER, S-9, AROCLOR 1254, Method: STANDARD PLATE); “active; positive. reevaluation of results: positive” (Test System: MOUSE LYMPHOMA, Strain/Indicator: L5178Y (TK+/TK-), Metabolic Activation: NONE, Method: SUSPENSION/PLATE); “inactive; negative. reevaluation of results: negative” (Test System: MOUSE LYMPHOMA, Strain/Indicator: L5178Y (TK+/TK-), Metabolic Activation: RAT, LIVER, S-9, AROCLOR 1254, Method: SUSPENSION/PLATE); “active; positive” (Test System: Mouse lymphoma, Strain/Indicator: L5178Y (tk+/tk-), Metabolic Activation: None, Method: Suspension/plate). The mutagenic call (Test System: Mouse lymphoma, Strain/Indicator: L5178Y (tk+/tk-), Metabolic Activation: Rat, Liver, S-9, Aroclor 1254, Method: Suspension/plate) was “inactive; negative”.

As for `CN1CSC(=S)N(C)C1`, for the setting “End Point: In vivo micronucleus, Test System: Micronucleated polychromatic erythrocytes, Species: Mouse, Strain/Sex: NMRI / Males and females, Route: Oral”, the mutagenic call was “inactive; negative”.

In the case of `CNC(=O)CNC(=O)C=[N+]=[N-]`, under “Test System: UDS RODENT CELLS, Strain/Indicator: THY INCORP (NON-S-PHASE), Metabolic Activation: NONE, Method: AUTORADIOGRAPHY”, the mutagenic call was “active; positive”.

Regarding `Fc1cccc2c1ccc1cccnc12`, the mutagenic call (Test System: AMES SALMONELLA TYPHIMURIUM, Strain/Indicator: TA100, Metabolic Activation: RAT, LIVER, S-9, PHENOBARBITAL AND 5,6-BENZOFLAVONE, Method: PREINCUBATION) was “active; positive”.

`CC\C=C/C=C\C=C/C=C\C=C/C=C\OCC(O)CO` (centres undefined): the mutagenic call under setting [2] is “active; positive”.
